From PubChem BioAssay (NCI)
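How tested: cells in 96-well plates exposed to compound for 48 hours at five concentrations. The concentration for 50% growth inhibition is given as GI50. The concentration for full growth arrest is given as TGI.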

How the values were obtained:
Experiment in all cases: inhibition of tumour cell growth, NCI panel, 48 h
IGROV1 ovarian = test system: IGROV1 ovarian
NCI-H460 lung = test system: NCI-H460 lung
UO-31 renal = test system: UO-31 renal
MALME-3M melanoma = test system: MALME-3M melanoma
OVCAR-8 ovarian = test system: OVCAR-8 ovarian
PC-3 prostate = test system: PC-3 prostate
DU-145 prostate = test system: DU-145 prostate
CCRF-CEM leukemia = test system: CCRF-CEM leukemia
SK-MEL-2 melanoma = test system: SK-MEL-2 melanoma
SW-620 colon = test system: SW-620 colon

SMILES | GI50 (IGROV1 ovarian) [µM] | TGI (IGROV1 ovarian) [µM] | GI50 (NCI-H460 lung) [µM] | TGI (NCI-H460 lung) [µM] | GI50 (UO-31 renal) [µM] | TGI (UO-31 renal) [µM] | GI50 (MALME-3M melanoma) [µM] | TGI (MALME-3M melanoma) [µM] | GI50 (OVCAR-8 ovarian) [µM] | TGI (OVCAR-8 ovarian) [µM] | GI50 (PC-3 prostate) [µM] | TGI (PC-3 prostate) [µM] | GI50 (DU-145 prostate) [µM] | TGI (DU-145 prostate) [µM] | GI50 (CCRF-CEM leukemia) [µM] | TGI (CCRF-CEM leukemia) [µM] | GI50 (SK-MEL-2 melanoma) [µM] | TGI (SK-MEL-2 melanoma) [µM] | GI50 (SW-620 colon) [µM] | TGI (SW-620 colon) [µM]
C=C(C)[C@@H]1CC[C@]2(C)[C@H](C(=O)C=C3[C@@H]4C[C@](C)(C(=O)N5CCN(C)CC5)CC[C@]4(C)CC[C@]32C)[C@@]1(C)CCC#N | 6.58 | 14.6 | 6.48 | 13.9 | 5.37 | 11.3 | 3.94 | 10.6 | 8.12 | 16.2 | 3.17 | 10.4 | 7.85 | 15.3 | 6.62 | 16.3 | 7.57 | 14.8 | 6.99 | 14.9
COc1ccc(Nn2c(SCC(=O)Nc3nc(-c4ccc(Cl)cc4)cs3)nc(C)c2C)cc1 | 5.67 | > 100 | 2.69 | 10.6 | 2.62 | > 100 | 2.9 | > 100 | 4.82 | > 100 | 2.65 | > 100 | 4.06 | > 100 | 3.82 | > 100 | 15.7 | 66.8 | 4.78 | > 100
CCNCC(=O)O[C@]1(CC)C(=O)OCc2c1cc1n(c2=O)Cc2cc3ccccc3nc2-1 | – | 24.5 | – | – | – | 1.7 | – | 13.2 | – | 5.68 | – | > 100 | – | 1 | – | 0.418 | – | 7.92 | – | > 62.5
CCCCCC(O)C1C(=O)OC(C)C(O)/C=C/C=C/C=C/C=C\C=C(\C)C(O)CC(O)CC(O)CC(O)CC(O)CC(O)CC1O (stereo not drawn) | > 100 | > 100 | > 100 | > 100 | > 100 | > 100 | > 100 | > 100 | > 100 | > 100 | > 100 | > 100 | > 100 | > 100 | > 100 | > 100 | > 100 | > 100 | > 100 | > 100
CCSCC(N)C(=O)O (stereo not drawn) | – | > 100 | – | > 100 | – | > 100 | – | > 100 | – | > 100 | – | > 100 | – | > 100 | – | > 100 | – | > 100 | – | > 100
CC(C)[C@@]12C[C@@H](OC(=O)[C@H]3CO3)[C@@](C)(O1)[C@@H]1CC[C@@H](C)[C@H]1[C@@H]2OC(=O)/C=C/c1ccccc1 | 23.7 | > 83.4 | 17.2 | 42.5 | 0.177 | 0.416 | 13.9 | 30 | 0.434 | > 52.4 | 9.59 | > 88.1 | 31.5 | > 100 | 18 | > 84.7 | 16.7 | 47.7 | 29.9 | > 100
CCCCCCCC/C=C/CCCCCCCCC1=NCCN1CCO | 2.58 | 6.19 | 1.81 | 3.32 | 1.76 | 3.75 | 5.08 | 17.3 | 3.88 | 21.7 | 2.61 | 9.14 | 7.28 | 19.6 | 1.91 | 4.96 | 11.9 | 25.1 | 1.71 | 3.24
COC(=O)c1ccc2c(c1)nc(-c1cc3ccccc3[nH]c1=O)n2-c1cc(C(C)(C)C)[nH]n1 | 1.23 | > 100 | 0.784 | > 100 | 0.526 | > 100 | 2.63 | > 100 | 2 | > 100 | 2.27 | > 100 | 2.55 | > 100 | 0.853 | > 100 | 2.82 | > 100 | – | –
COc1cc(C(=O)/C=C/c2cc(C(=O)c3cc(OC)c(OC)c(OC)c3)ccc2OC)ccc1N | 2.07 | 8.62 | 2.13 | 7.61 | 0.762 | 2.12 | 1.47 | 4.16 | 0.846 | 6.12 | 1.8 | 7.4 | 1.03 | 4.59 | 0.35 | > 100 | 1.63 | 3.72 | 0.374 | > 100
COc1cc(NCCCCN=C(N)NC(N)=NC(C)C)c2ncccc2c1 | 0.439 | 6.32 | 5.97 | 20 | 99 | > 100 | 1.14 | 4.6 | 8.18 | 27.7 | 2.22 | 16.8 | 21 | > 59.9 | 4.57 | 27.3 | 3.8 | 14.9 | 5.76 | 22.2
O=P(O)(O)c1ccccc1 (tested in a mixture with another compound) | – | > 100 | – | > 100 | – | > 100 | – | > 100 | – | > 100 | – | > 100 | – | > 100 | – | > 100 | – | > 100 | – | > 100
NC(=NCCCOc1ccc(Cl)cc1)Nc1ccc(Cl)cc1 | 2.02 | 5.83 | 2.7 | 7.94 | 2.17 | 8.1 | 1.95 | 4.14 | 3.16 | 12.1 | 2.1 | 6.29 | 2.67 | 7.73 | 2.11 | 6.74 | 2.32 | 4.72 | 1.94 | 5.59
C/C(=N\NC(=O)c1ccncc1)c1ccc2ccccc2c1O | – | 99.3 | – | 20.4 | – | 38.5 | – | 43.2 | – | 35.3 | – | 96.9 | – | 38.2 | – | > 100 | – | > 100 | – | > 100
NC(=O)C1=NNc2ccccc2C(=O)N1c1ccccc1 | – | > 100 | – | > 100 | – | > 100 | – | > 100 | – | > 100 | – | > 100 | – | > 100 | – | > 100 | – | > 100 | – | > 100
Cc1nc2sccn2c(=O)c1CCN1CCC(=C(c2ccc(F)cc2)c2ccc(F)cc2)CC1 | 9.96 | 26.4 | 7.49 | 22.7 | 4.06 | 18.8 | 11.4 | 25.5 | 17 | 41 | 4.81 | 19.3 | 15.7 | 30.4 | 0.559 | 26.3 | 16.8 | 32.2 | 10.9 | 24.1
N#Cc1c(-c2ccc(Cl)cc2)n(O)c2ccccc12 | 3.15 | 8.52 | 2.82 | > 100 | 2.6 | 9.24 | 1.88 | 9.02 | 2.65 | 8.78 | 2.85 | 20.2 | 3.75 | > 100 | 3.37 | 23.2 | 1.46 | 5.46 | 0.996 | 13.2
O=C(O)C1C(C(=O)Nc2ccc3c(c2)Cc2ccccc2-3)C2(Cl)C(Cl)=C(Cl)C1(Cl)C2(Cl)Cl (stereo not drawn) | – | 44.4 | – | – | – | 55.5 | – | 44.6 | – | 43 | – | 30 | – | > 100 | – | 38 | – | 36.2 | – | 64.5
COc1ccc(C(=O)c2ccc(OC)c(OC)c2OC)cc1 | 1.76 | > 100 | 1.99 | 11.6 | 4.65 | > 100 | 1.77 | > 100 | 3 | > 100 | 3.21 | > 100 | 2.14 | 10.6 | 1.46 | > 100 | 0.402 | 3.33 | 0.377 | > 100
NC(N)=NS(=O)(=O)c1ccc(NCc2c3ccccc3nc3ccccc23)cc1 | – | 65 | – | 19.2 | – | 87.4 | – | 49.7 | – | 53.8 | – | > 100 | – | > 100 | – | 9.03 | – | > 67 | – | > 87.7
CC(C)(C)[Si](C)(C)OCC1OC(n2cnc3c(NC(=O)c4ccccc4)ncnc32)CC1O (stereo not drawn) | – | 91.3 | – | > 100 | – | 2.96 | – | 60.7 | – | > 100 | – | 95.5 | – | > 100 | – | 53.4 | – | 57.9 | – | > 100
C1CCN(CCC2CCCCN2)CC1 (stereo not drawn) | – | > 100 | – | > 100 | – | – | – | > 100 | – | > 100 | – | > 100 | – | > 100 | – | > 100 | – | > 100 | – | > 100
CC(=O)c1ccc(NC(=O)CSc2nnc(-c3cc(-c4ccc(C)cc4)nc4ccccc34)o2)cc1 | 3.31 | > 100 | 2.36 | 6.04 | 1.75 | 4.5 | 2.67 | 8.34 | 2.28 | 4.9 | 4.36 | > 100 | 4.52 | > 100 | 4.03 | > 100 | 12.3 | 31.2 | 3.24 | > 100
CC(=O)N1CC(Nc2ccc(OC(F)(F)F)cc2)=CC1=O | 7.81 | > 100 | 0.696 | > 100 | 19.4 | > 100 | 61.5 | > 100 | 3.63 | > 100 | 2.99 | > 100 | 3.76 | > 100 | 2.52 | > 100 | 0.52 | 95.9 | 0.476 | > 100
COc1ccccc1-n1c(-c2cc(O)ccc2C)cn2c3c(=O)[nH]c(=O)n(C)c3nc12 | 3.52 | 13.9 | > 100 | > 100 | 9.33 | > 100 | > 100 | > 100 | 10.9 | > 100 | > 100 | > 100 | 7.04 | > 100 | > 100 | > 100 | > 100 | > 100 | > 100 | > 100
CN1CCCNc2c(c(=O)c2=O)NCCCN(C)CCCNc2c(c(=O)c2=O)NCCCN(C)CCCNc2c(c(=O)c2=O)NCCCN(C)CCCNc2c(c(=O)c2=O)NCCCN(C)CCCNc2c(c(=O)c2=O)NCCCN(C)CCCNc2c(c(=O)c2=O)NCCCN(C)CCCNc2c(c(=O)c2=O)NCCC1 | 3.13 | 23.8 | 3.9 | > 50 | 2.01 | 9.19 | 1.11 | 3.54 | 2.48 | 46.8 | 7.02 | 22.2 | 1.68 | 5.9 | 2.24 | 49.3 | 3.12 | 31.6 | 4.63 | 25.3
CCOc1ccc([C@@H]2[C@@H](Oc3ccccc3)C(=O)N2c2cc(OC)c(OC)c(OC)c2)cc1 | 0.15 | > 100 | 0.285 | > 100 | 0.613 | > 100 | > 100 | > 100 | 0.0463 | > 100 | 0.0706 | > 100 | 0.218 | > 100 | 0.048 | > 100 | 0.097 | > 100 | 0.0536 | > 100
CC(C)C1OC(=O)C=C1Sc1ccccc1 (stereo not drawn) | – | > 100 | – | > 100 | – | – | – | > 100 | – | > 100 | – | > 100 | – | > 100 | – | > 100 | – | > 100 | – | > 100
CN(C)c1ccc(C(=C2C=CC(=[N+](C)C)C=C2)c2ccc(N(C)C)cc2)cc1 (tested in a mixture with another compound) | 0.161 | 1.78 | – | – | – | 1.39 | 0.127 | 0.56 | – | – | 0.0368 | 1.6 | 0.0543 | 1.28 | 0.231 | 19.5 | – | 0.545 | 0.0476 | 1.35
